Values quoted from earlier work as cited in patent US8686153B2, “Lenalidomide salts” (Synthon B.V., priority 2009, dated 2014).

solubility at pH 4.6, 6.8 and 7.4: 0.4-0.5 mg/ml
SMILES: Nc1cccc2c1CN(C1CCC(=O)NC1=O)C2=O (racemic) [Lenalidomide, 3-(4-amino-1-oxo-3H-isoindol-2-yl)piperidine-2,6-dione]
